Results as given in PubChem BioAssay AID2060910 (Molecular Pharmacology Branch, DTP, NCI, 2025).
Each block holds one compound with its values, some of them ahead of it.

Test system: 242566-281-R-J2-PDC complex spheroid viability
Assay: Anticancer human tumor 242566-281-R-J2-PDC patient-derived pancreatic carcinoma cell line growth inhibition [RAS]
Conditions: for IC50: curve of first compound; for viability, T/C: stronger effect = lower value
In short: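 Multi-cell-type spheroids: tumor cells plus HUVEC endothelial cells and mesenchymal stem cells. RAS-pathway inhibitors were combined with targeted agents, each dosed in half-log steps down from clinical Cmax, or from 10 microM when Cmax was unknown.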

[1] = second compound 0.00316 µM, first compound 0.0316 µM
[2] = second compound 0.00316 µM, first compound 0.1 µM
[3] = second compound 0.00316 µM, first compound 0.316 µM
[4] = second compound 0.00316 µM, first compound 1 µM
[5] = second compound 0.00316 µM, first compound 3.16 µM
[6] = second compound 0.00316 µM, first compound 10 µM
[7] = second compound 0.01 µM, first compound 0.0316 µM
[8] = second compound 0.01 µM, first compound 0.1 µM
[9] = second compound 0.01 µM, first compound 0.316 µM
[10] = second compound 0.01 µM, first compound 1 µM
[11] = second compound 0.01 µM, first compound 3.16 µM
[12] = second compound 0.01 µM, first compound 10 µM
[13] = second compound 0.0316 µM, first compound 0.0316 µM
[14] = second compound 0.0316 µM, first compound 0.1 µM
[15] = second compound 0.0316 µM, first compound 0.316 µM
[16] = second compound 0.0316 µM, first compound 1 µM
[17] = second compound 0.0316 µM, first compound 3.16 µM
[18] = second compound 0.0316 µM, first compound 10 µM
[19] = second compound 0.1 µM, first compound 0.0316 µM
[20] = second compound 0.1 µM, first compound 0.1 µM
[21] = second compound 0.1 µM, first compound 0.316 µM
[22] = second compound 0.1 µM, first compound 1 µM
[23] = second compound 0.1 µM, first compound 3.16 µM
[24] = second compound 0.1 µM, first compound 10 µM
[25] = second compound 0.316 µM, first compound 0.0316 µM
[26] = second compound 0.316 µM, first compound 0.1 µM
[27] = second compound 0.316 µM, first compound 0.316 µM
[28] = second compound 0.316 µM, first compound 1 µM
[29] = second compound 0.316 µM, first compound 3.16 µM
[30] = second compound 0.316 µM, first compound 10 µM
[31] = second compound 1 µM, first compound 0.0316 µM
[32] = second compound 1 µM, first compound 0.1 µM
[33] = second compound 1 µM, first compound 0.316 µM
[34] = second compound 1 µM, first compound 1 µM
[35] = second compound 1 µM, first compound 3.16 µM
[36] = second compound 1 µM, first compound 10 µM
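Further: spheroids exposed to compound for 7 days before readout.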
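Wherever viability, T/C is given: 100% = DMSO vehicle control wells.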

SMILES: CCC(CC)c1cc(NC2CCC(N)C2)n2nccc2n1 (stereo not given) + C=CC(=O)N1CCN(c2nc(OCC3CCCN3C)nc3c(F)c(-c4nc(N)cc(C)c4C(F)(F)F)c(Cl)cc23)C(C)C1
IC50 (second compound 0.00316 µM): 4.59 µM
IC50 (second compound 0.01 µM): 4.42 µM
IC50 (second compound 0.0316 µM): 3.74 µM
IC50 (second compound 0.1 µM): 4.54 µM
IC50 (second compound 0.316 µM): 3.76 µM
IC50 (second compound 1 µM): 4.55 µM
viability, T/C [1]: 108%
viability, T/C [2]: 141%
viability, T/C [3]: 94.3%
viability, T/C [4]: 109%
viability, T/C [5]: 72.6%
viability, T/C [6]: 1.71%
viability, T/C [7]: 121%
viability, T/C [8]: 146%
viability, T/C [9]: 108%
viability, T/C [10]: 100%
viability, T/C [11]: 72.8%
viability, T/C [12]: 1.81%
viability, T/C [13]: 129%
viability, T/C [14]: 123%
viability, T/C [15]: 97.1%
viability, T/C [16]: 98%
viability, T/C [17]: 58.3%
viability, T/C [18]: 1.98%
viability, T/C [19]: 137%
viability, T/C [20]: 129%
viability, T/C [21]: 106%
viability, T/C [22]: 96.5%
viability, T/C [23]: 82.5%
viability, T/C [24]: 1.56%
viability, T/C [25]: 149%
viability, T/C [26]: 124%
viability, T/C [27]: 99.3%
viability, T/C [28]: 102%
viability, T/C [29]: 62.8%
viability, T/C [30]: 1.81%
viability, T/C [31]: 125%
viability, T/C [32]: 156%
viability, T/C [33]: 82.7%
viability, T/C [34]: 115%
viability, T/C [35]: 75%
viability, T/C [36]: 1.22%

SMILES: Nc1ccn(C2OC(CO)C(O)C2(F)F)c(=O)n1 (stereo not given) + C=CC(=O)N1CCN(c2nc(OCC3CCCN3C)nc3c(F)c(-c4nc(N)cc(C)c4C(F)(F)F)c(Cl)cc23)C(C)C1
IC50 (second compound 0.00316 µM): 0.108 µM
IC50 (second compound 0.01 µM): 0.112 µM
IC50 (second compound 0.0316 µM): 0.103 µM
IC50 (second compound 0.1 µM): 0.0969 µM
IC50 (second compound 0.316 µM): 0.0573 µM
IC50 (second compound 1 µM): 0.0972 µM
viability, T/C (second compound 0.00316 µM, first compound 0.00316 µM): 101%
viability, T/C (second compound 0.00316 µM, first compound 0.01 µM): 118%
viability, T/C [1]: 92.6%
viability, T/C [2]: 52.1%
viability, T/C [3]: 25.9%
viability, T/C [4]: 18.4%
viability, T/C (second compound 0.01 µM, first compound 0.00316 µM): 123%
viability, T/C (second compound 0.01 µM, first compound 0.01 µM): 128%
viability, T/C [7]: 93.6%
viability, T/C [8]: 53.8%
viability, T/C [9]: 26%
viability, T/C [10]: 16.2%
viability, T/C (second compound 0.0316 µM, first compound 0.00316 µM): 103%
viability, T/C (second compound 0.0316 µM, first compound 0.01 µM): 147%
viability, T/C [13]: 74.3%
viability, T/C [14]: 60%
viability, T/C [15]: 21.6%
viability, T/C [16]: 15.8%
viability, T/C (second compound 0.1 µM, first compound 0.00316 µM): 134%
viability, T/C (second compound 0.1 µM, first compound 0.01 µM): 124%
viability, T/C [19]: 91.3%
viability, T/C [20]: 50.8%
viability, T/C [21]: 21.5%
viability, T/C [22]: 19.1%
viability, T/C (second compound 0.316 µM, first compound 0.00316 µM): 115%
viability, T/C (second compound 0.316 µM, first compound 0.01 µM): 160%
viability, T/C [25]: 75.5%
viability, T/C [26]: 41.9%
viability, T/C [27]: 20.6%
viability, T/C [28]: 15.7%
viability, T/C (second compound 1 µM, first compound 0.00316 µM): 115%
viability, T/C (second compound 1 µM, first compound 0.01 µM): 102%
viability, T/C [31]: 83.6%
viability, T/C [32]: 50.9%
viability, T/C [33]: 22%
viability, T/C [34]: 18.9%

Further lines, with some results ahead:

IC50 (second compound 0.00316 µM): < 0.0316 µM
IC50 (second compound 0.01 µM): 0.237 µM
IC50 (second compound 0.0316 µM): 0.122 µM
IC50 (second compound 0.1 µM): > 10 µM
IC50 (second compound 0.316 µM): > 10 µM
IC50 (second compound 1 µM): < 0.0316 µM
SMILES: CC(=O)OC12COC1CC(O)C1(C)C(=O)C(O)C3=C(C)C(OC(=O)C(O)C(NC(=O)OC(C)(C)C)c4ccccc4)CC(O)(C(OC(=O)c4ccccc4)C21)C3(C)C (stereo not given) + C=CC(=O)N1CCN(c2nc(OCC3CCCN3C)nc3c(F)c(-c4nc(N)cc(C)c4C(F)(F)F)c(Cl)cc23)C(C)C1
viability, T/C [1]: 52.6%
viability, T/C [2]: 53.8%
viability, T/C [3]: 50.5%
viability, T/C [4]: 35.5%
viability, T/C [5]: 54.5%
viability, T/C [6]: 69.3%
viability, T/C [7]: 71.5%
viability, T/C [8]: 53%
viability, T/C [9]: 42.2%
viability, T/C [10]: 41.8%
viability, T/C [11]: 45.2%
viability, T/C [12]: 66.8%
viability, T/C [13]: 80.4%
viability, T/C [14]: 51.9%
viability, T/C [15]: 39.3%
viability, T/C [16]: 35.6%
viability, T/C [17]: 48.5%
viability, T/C [18]: 66.5%
viability, T/C [19]: 61.1%
viability, T/C [20]: 51.4%
viability, T/C [21]: 47.6%
viability, T/C [22]: 37.9%
viability, T/C [23]: 46.5%
viability, T/C [24]: 68.2%
viability, T/C [25]: 64.9%
viability, T/C [26]: 52.1%
viability, T/C [27]: 37%
viability, T/C [28]: 49.3%
viability, T/C [29]: 55.7%
viability, T/C [30]: 71.4%
viability, T/C [31]: 52.7%
viability, T/C [32]: 51.1%
viability, T/C [33]: 44.8%
viability, T/C [34]: 42.8%
viability, T/C [35]: 50.9%
viability, T/C [36]: 65.7%

IC50 (second compound 0.00316 µM): > 10 µM
IC50 (second compound 0.01 µM): > 10 µM
IC50 (second compound 0.0316 µM): > 10 µM
IC50 (second compound 0.1 µM): > 10 µM
IC50 (second compound 0.316 µM): > 10 µM
IC50 (second compound 1 µM): > 10 µM
SMILES: Cc1nc(N2CCC3(CC2)COC(C)C3N)c(CO)nc1Sc1ccnc(N)c1Cl (stereo not given) + C=CC(=O)N1CCN(c2nc(OCC3CCCN3C)nc3c(F)c(-c4nc(N)cc(C)c4C(F)(F)F)c(Cl)cc23)C(C)C1
viability, T/C [1]: 115%
viability, T/C [2]: 136%
viability, T/C [3]: 102%
viability, T/C [4]: 80.1%
viability, T/C [5]: 104%
viability, T/C [6]: 105%
viability, T/C [7]: 129%
viability, T/C [8]: 120%
viability, T/C [9]: 89.3%
viability, T/C [10]: 70.8%
viability, T/C [11]: 94%
viability, T/C [12]: 116%
viability, T/C [13]: 118%
viability, T/C [14]: 124%
viability, T/C [15]: 99.1%
viability, T/C [16]: 77.4%
viability, T/C [17]: 100%
viability, T/C [18]: 120%
viability, T/C [19]: 157%
viability, T/C [20]: 119%
viability, T/C [21]: 89.4%
viability, T/C [22]: 84.6%
viability, T/C [23]: 83.1%
viability, T/C [24]: 113%
viability, T/C [25]: 132%
viability, T/C [26]: 151%
viability, T/C [27]: 96%
viability, T/C [28]: 85%
viability, T/C [29]: 102%
viability, T/C [30]: 113%
viability, T/C [31]: 141%
viability, T/C [32]: 130%
viability, T/C [33]: 93.2%
viability, T/C [34]: 85.7%
viability, T/C [35]: 112%
viability, T/C [36]: 113%

IC50 (second compound 0.00316 µM): > 10 µM
IC50 (second compound 0.01 µM): > 10 µM
IC50 (second compound 0.0316 µM): > 10 µM
IC50 (second compound 0.1 µM): > 10 µM
IC50 (second compound 0.316 µM): > 10 µM
IC50 (second compound 1 µM): > 10 µM
SMILES: NC1c2ccccc2OC12CCN(c1cnc3c(N4CCCc5ncccc54)n[nH]c3n1)CC2 (stereo not given) + C=CC(=O)N1CCN(c2nc(OCC3CCCN3C)nc3c(F)c(-c4nc(N)cc(C)c4C(F)(F)F)c(Cl)cc23)C(C)C1
viability, T/C [1]: 104%
viability, T/C [2]: 128%
viability, T/C [3]: 83.3%
viability, T/C [4]: 82.7%
viability, T/C [5]: 79.5%
viability, T/C [6]: 61.7%
viability, T/C [7]: 99%
viability, T/C [8]: 122%
viability, T/C [9]: 107%
viability, T/C [10]: 72.2%
viability, T/C [11]: 98.7%
viability, T/C [12]: 62.6%
viability, T/C [13]: 120%
viability, T/C [14]: 126%
viability, T/C [15]: 86.9%
viability, T/C [16]: 89.3%
viability, T/C [17]: 77.1%
viability, T/C [18]: 56.2%
viability, T/C [19]: 124%
viability, T/C [20]: 129%
viability, T/C [21]: 98.8%
viability, T/C [22]: 67.5%
viability, T/C [23]: 73.3%
viability, T/C [24]: 54.7%
viability, T/C [25]: 124%
viability, T/C [26]: 138%
viability, T/C [27]: 87%
viability, T/C [28]: 84.4%
viability, T/C [29]: 76.2%
viability, T/C [30]: 56.8%
viability, T/C [31]: 122%
viability, T/C [32]: 119%
viability, T/C [33]: 76.1%
viability, T/C [34]: 87.4%
viability, T/C [35]: 91%
viability, T/C [36]: 60.4%
